According to US20220105119A1, “DELIVERY OF AEROSOLIZED MICROMOLAR COMPOSITION CONCENTRATIONS” (Amcyte Pharma Inc., priority 2020, published 2022):
Where “and” joins values, the source holds several entries; their conditions need not be identical. Identical values can stand only once. Like-named read-outs stand apart in the source and are kept apart here.

Tests used:
[1] = in vivo; cited from earlier work
[2] = Related substances by HPLC after 1 week at 50° C.; assay type: physicochemical; conditions: formulations after 1 week at 50° C., drug substance lot as used
From the text: HPLC method used renders chromatograms like the one depicted in FIG. 1 for drug substance and drug product. […] The rest of the peaks may be attributed to related substances. Related substances are substances structurally similar to the drug substance. Some of them come from synthesis impurities and are not increased during shelf life because they cannot form from degradation of the drug substance. Others are degradation products. […] (an extremely high stress condition for an MDI).

[3] = Ali 2011; cited from earlier work
[4] = system: flaviviruses (yellow fever virus, West Nile virus, dengue virus, Japanese encephalitis virus, tick-borne encephalitis virus); conditions: other viruses; cited from earlier work
[5] = calculated
[6] = system: SARS CoV 2; conditions: cited from earlier work
[7] = cited from earlier work; for Maximum Plasma Concentration: single oral dose; for Time elapsed to reach maximum concentration: after ingestion
[8] = system: SARS CoV 2; assay type: cell-based

For Ivermectin, the Oral bioavailability [1] is listed as 40-50%, the “Related substance RRT 1.42” value ([2]; alkaline degradation product) is listed as 2.9 % total HPLC area and the “Related substance RRT 0.39” value [2] is listed as 0.3 % total HPLC area. For the same substance, the “Related substance RRT 0.40” value [2] was 0.3 % total HPLC area, the “Related substance RRT 0.46” value [2] was 0.5 % total HPLC area and the “Related substance RRT 0.78” value [2] was 0.1 % total HPLC area. The “Related substance RRT 1.52” value [2] was 0.7 % total HPLC area, the forced degradation studies [3] was “susceptible to oxidation and hydrolysis” and the “concentration range of antiviral activity” value [4] was 0.003 to 10 µM. The “concentration in nasal airway surface liquid” value ([5]; 100 μg per nostril in a 50-μL shot, liquid volume 50-375 μL) was 533 µg/mL, the “immediate concentration in saliva” value ([5]; one 50-μL shot containing 100 μg, 0.8 mL saliva) was 125 µg/mL and the IC50 ([6]; Vero cells culture, read-out: IC50, SARS CoV 2 replication) was 2000 nM and ~2000 nM. For the same substance, the “reduction in viral RNA in reference to placebo” value ([6]; at 5 μM, 48 hours after one single application) was 5,000 fold, the “viral RNA reduction” value ([6]; at a concentration of (equivalent to ca. 4.4 μg/mL)) was “ca. 5,000 times” and the “Maximum Plasma Concentration” value ([7]; 150 μg/kg (fasted), Baraka 1996) was “aprox. 55 ng/mL”. The “Maximum Plasma Concentration” value ([7]; 200 μg/kg (fed), Schulz 2018) was 40.1 ng/mL, the “Maximum Plasma Concentration” value ([7]; 600 μg/kg (children, fed), Schulz 2019) was 66.1 ng/mL and the “Maximum Plasma Concentration” value ([7]; 30 mg (fed), Guzzo 2002) was 260.5 ng/mL. For the same substance, the “Maximum Plasma Concentration” value ([7]; 60 mg (fasted), Guzzo 2002) was 186.2 ng/mL and 165.2 to 186.2 ng/mL, the “Maximum Plasma Concentration” value ([7]; 90 mg (fasted), Guzzo 2002) was 158.1 ng/mL and the “Maximum Plasma Concentration” value ([7]; 120 mg (fasted), Guzzo 2002) was 247.8 ng/mL. The “Time elapsed to reach maximum concentration” value ([7]; adults) was 4 to 5 h, the “Time elapsed to reach maximum concentration” value ([7]; children) was 6 to 7 h and the “IC50 as mass concentration” value [8] was 1.7 µg/mL.
